Measured values: patent US6806230B1, “Pyrimidine derivatives and herbicides containing them” (Kumiai Chemical Industry Co., Ltd., priority 1999, dated 2004)

How the values were obtained:
Assay type in all cases: in vivo
[1] = test system: barnyard grass (Eo); experiment: Test Example 1: herbicidal effects by flooded paddy field treatment; details: dose 100 gai/10a, examined on 21st day after treatment, index 0-5 per Table 44;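 note: 0-5 growth inhibition grade; 5 = over 90%; 4 = 70-90%; 3 = 50-70%; 2 = 30-50%; 1 = 10-30%; 0 = under 10%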
Procedure, shortened: (§1)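 Herbicidal effect scored 21 days post-treatment after greenhouse cultivation. Treatment was applied dropwise to the water surface, one day after sowing, as a diluted wettable powder (100 g a.i./10 ares). Pots held puddled paddy soil under 3 cm water.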

[2] = test system: monochoria (Mo); experiment: as above; details: dose 100 gai/10a, examined on 21st day after treatment, index 0-5 per Table 44
Procedure, shortened: as §1

[3] = test system: barnyard grass (Ec); experiment: Test Example 2: herbicidal effects by upland soil treatment; set-up: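 0-5 growth inhibition grade; 5 = over 90%; 4 = 70-90%; 3 = 50-70%; 2 = 30-50%; 1 = 10-30%; 0 = under 10%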; details: dose 100 g active ingredient per 10 ares, examined on the 21st day after treatment, standards of Table 44
Procedure, shortened: (§2)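 Pre-emergence test: barnyard grass and green foxtail sown in upland soil, then soil surface sprayed with wettable-powder formulation at 100 g active ingredient per 10 ares (100 l per 10 ares). Grown in greenhouse; herbicidal effect scored on a rating scale 21 days after treatment.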

[4] = test system: green foxtail (Se); experiment: as above; details: dose 100 g active ingredient per 10 ares, examined on the 21st day after treatment, standards of Table 44;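 note: 0-5 growth inhibition grade; 5 = over 90%; 4 = 70-90%; 3 = 50-70%; 2 = 30-50%; 1 = 10-30%; 0 = under 10%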
Procedure, shortened: as §2

[5] = test system: barnyard grass (Ec); experiment: Test Example 3: herbicidal effects by foliage treatment in upland field; set-up: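 0-5 growth inhibition grade; 5 = over 90%; 4 = 70-90%; 3 = 50-70%; 2 = 30-50%; 1 = 10-30%; 0 = under 10%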; details: dose 100 g active ingredient per 10 ares, examined on the 14th day after treatment
Procedure, shortened: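 Barnyard grass and green foxtail were grown in upland soil for 2 weeks in a greenhouse. A water-diluted wettable powder was sprayed over the foliage at 100 l per 10 ares, giving 100 g active ingredient per 10 ares. Herbicidal effect was scored on day 14 after treatment.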

[6] = test system: barnyard grass (Eo); experiment: Test Example 4: selectivity for a crop plant by flooded paddy field treatment; set-up: scale not given here; details: dose 25 g active ingredient per 10 ares, examined on the 21st day after treatment
Procedure, shortened: (§3)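 Flooded-paddy treatment: the wettable powder formulation, diluted in water, was applied dropwise to 3 cm floodwater at 25 g a.i./10 ares one day after sowing barnyard grass and monochoria and transplanting rice at the second leaf stage. Greenhouse grown; herbicidal effect rated against set standards on day 21.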

[7] = test system: monochoria (Mo); experiment: as above; set-up: scale not given here; details: dose 25 g active ingredient per 10 ares, examined on the 21st day after treatment
Procedure, shortened: as §3

[8] = test system: rice (Or); experiment: as above; set-up: scale not given here; details: rice transplanted at second leaf stage, dose 25 g active ingredient per 10 ares, examined on the 21st day after treatment
Procedure, shortened: as §3

[9] = test system: barnyard grass (Ec); experiment: Test Example 5: selectivity for a crop plant by soil treatment in upland field; set-up: scale not given here; details: dose 25 gai/10a, 21st day after treatment, index per Table 44
Protocol: (§4) In a 80 cm^2 plastic pot, upland soil was filled, and seeds of barnyard grass (Ec), green foxtail (Se), soybean (G1), wheat (Tr) and corn (Ze) were sown and covered with soil. A wettable powder prepared in accordance with Formulation Example 1 was diluted with water and uniformly applied to the soil surface by a small size spray at a rate of 100 l per 10 ares so that the dose of the active ingredient would be 25 g per 10 ares. Thereafter, cultivation was carried out in a green house, and on the 21st day after the treatment, the herbicidal effects were examined in accordance with the standards of Table 44.

[10] = test system: corn (Ze); experiment: as above; set-up: scale not given here; details: dose 25 gai/10a, 21st day after treatment, index per Table 44
Protocol: as §4

[11] = test system: soybean (G1); experiment: as above; set-up: scale not given here; details: dose 25 gai/10a, 21st day after treatment, index per Table 44
Protocol: as §4

[12] = test system: wheat (Tr); experiment: as above; set-up: scale not given here; details: dose 25 gai/10a, 21st day after treatment, index per Table 44
Protocol: as §4
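Throughout, for Herbicidal effect index, Mo: 0-5 growth inhibition grade; 5 = over 90%; 4 = 70-90%; 3 = 50-70%; 2 = 30-50%; 1 = 10-30%; 0 = under 10%.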

| SMILES | Or (effect on crop plant rice, index) [8] | Herbicidal effect index, Eo [1] | Herbicidal effect index, Mo [2] | herbicidal effects, Ec (barnyard grass) [3] | herbicidal effects, Se (green foxtail) [4] | Ec (herbicidal effects, index) [5] | Eo (herbicidal effects, index) [6] | Mo (herbicidal effects, index) [7] | Ec (herbicidal effect index) [9] | Ze (herbicidal effect index on crop) [10] | Gl (herbicidal effect index on crop) [11] | Tr (herbicidal effect index on crop) [12] |
| --- | --- | --- | --- | --- | --- | --- | --- | --- | --- | --- | --- | --- |
| CCC(C)C(c1cncnc1C(F)(F)F)N(C)C(=O)Cc1ccc(F)cc1 (mixture of isomers) [Compound 1-58] | – | 5 | 5 | 5 | 5 | 4 | – | – | 5 | 0 | 0 | 3 |
| CC(C)C(c1cncnc1C(F)(F)F)N(C)C(=O)Cc1ccccc1F (racemic) [Compound 1-100] | – | 5 | 5 | 5 | 5 | 5 | – | – | 5 | 2 | 0 | 2 |
| Cc1ncncc1C(C(C)C)N(C)C(=O)Cc1ccc(Cl)cc1 (racemic) [Compound 1-56] | – | 5 | 5 | 5 | 5 | 4 | – | – | 5 | 3 | 0 | 4 |
| CC(C)C(c1cncnc1C(F)(F)F)N(C)C(=O)Cc1ccc(OC(F)(F)F)cc1 (racemic) [Compound 1-95] | – | 5 | 5 | 5 | 5 | 5 | – | – | 5 | 0 | 1 | 0 |
| CC(C)C(c1cncnc1C(F)(F)F)N(C)C(=O)Cc1ccc(Cl)c(Cl)c1 (racemic) [Compound 1-45] | 0 | 5 | 5 | 5 | 5 | – | 5 | 5 | 4 | 0 | 0 | 2 |

Second part, led by results:

| Or (effect on crop plant rice, index) [8] | SMILES | Herbicidal effect index, Eo [1] | Herbicidal effect index, Mo [2] | herbicidal effects, Ec (barnyard grass) [3] | herbicidal effects, Se (green foxtail) [4] | Ec (herbicidal effects, index) [5] | Eo (herbicidal effects, index) [6] | Mo (herbicidal effects, index) [7] | Ec (herbicidal effect index) [9] | Ze (herbicidal effect index on crop) [10] | Gl (herbicidal effect index on crop) [11] | Tr (herbicidal effect index on crop) [12] |
| --- | --- | --- | --- | --- | --- | --- | --- | --- | --- | --- | --- | --- |
| 1 | CN(C(=O)Cc1ccc(F)cc1)C(c1cncnc1C(F)(F)F)C(C)(C)C (racemic) [Compound 1-53] | 5 | 5 | 5 | 5 | 4 | 5 | 5 | 4 | 0 | 1 | 2 |
| 0 | CC(C)C(c1cncnc1C(F)(F)F)N(C)C(=O)Cc1ccc(I)cc1 (racemic) [Compound 1-42] | 5 | 5 | 5 | 5 | 4 | 5 | 5 | 5 | 0 | 0 | 0 |
| 1 | CCN(C(=O)Cc1ccc(C#N)cc1)C(c1cncnc1C(F)(F)F)C(C)C (racemic) [Compound 1-98] | 5 | 5 | 5 | 5 | 4 | 5 | 5 | 4 | 1 | 0 | 1 |
